From PubChem BioAssay (NCI)
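Five compound concentrations were applied to cells in 96-well plates for 48 hours; endpoints were derived by simple linear interpolation of the resulting dose-response curve. GI50: concentration for 50% inhibition of growth. The concentration for full growth arrest is given as TGI.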

Assays:
Test in all cases: NCI tumour cell line growth inhibition, 48 h; in the data active = GI50 below about 0.43 µM; inactive = the rest
A498 renal = test system: A498 renal
OVCAR-5 ovarian = test system: OVCAR-5 ovarian
SR leukemia = test system: SR leukemia
OVCAR-8 ovarian = test system: OVCAR-8 ovarian
SNB-19 CNS = test system: SNB-19 CNS
COLO 205 colon = test system: COLO 205 colon
U251 CNS = test system: U251 CNS
SN12C renal = test system: SN12C renal
SNB-75 CNS = test system: SNB-75 CNS
A549 NSCLC = test system: A549 NSCLC
CCRF-CEM leukemia = test system: CCRF-CEM leukemia
NCI-H460 lung = test system: NCI-H460 lung
M14 melanoma = test system: M14 melanoma
MALME-3M melanoma = test system: MALME-3M melanoma
SF-268 CNS = test system: SF-268 CNS
HCC-2998 colon = test system: HCC-2998 colon
PC-3 prostate = test system: PC-3 prostate
SK-MEL-5 melanoma = test system: SK-MEL-5 melanoma
NCI-H522 lung = test system: NCI-H522 lung
HCT-116 colon = test system: HCT-116 colon
CAKI-1 renal = test system: CAKI-1 renal
OVCAR-4 ovarian = test system: OVCAR-4 ovarian
SK-MEL-2 melanoma = test system: SK-MEL-2 melanoma
ACHN renal = test system: ACHN renal
MOLT-4 leukemia = test system: MOLT-4 leukemia
K-562 leukemia = test system: K-562 leukemia
IGROV1 ovarian = test system: IGROV1 ovarian
HOP-92 NSCLC = test system: HOP-92 NSCLC
SF-539 CNS = test system: SF-539 CNS
NCI-H226 lung = test system: NCI-H226 lung
TK-10 renal = test system: TK-10 renal
HCT-15 colon = test system: HCT-15 colon
SK-MEL-28 melanoma = test system: SK-MEL-28 melanoma
KM12 colon = test system: KM12 colon
T-47D breast = test system: T-47D breast
MDA-MB-435 = test system: MDA-MB-435
DU-145 prostate = test system: DU-145 prostate
OVCAR-3 ovarian = test system: OVCAR-3 ovarian
UACC-62 melanoma = test system: UACC-62 melanoma
NCI-H23 lung = test system: NCI-H23 lung
HOP-62 NSCLC = test system: HOP-62 NSCLC
MCF7 breast = test system: MCF7 breast
RXF 393 renal = test system: RXF 393 renal
EKVX NSCLC = test system: EKVX NSCLC
LOX IMVI melanoma = test system: LOX IMVI melanoma
HL-60(TB) leukemia = test system: HL-60(TB) leukemia
RPMI-8226 leukemia = test system: RPMI-8226 leukemia
SF-295 CNS = test system: SF-295 CNS
HT29 colon = test system: HT29 colon
UACC-257 melanoma = test system: UACC-257 melanoma
SW-620 colon = test system: SW-620 colon
UO-31 renal = test system: UO-31 renal
786-0 renal = test system: 786-0 renal
BT-549 breast = test system: BT-549 breast
MDA-MB-231 breast = test system: MDA-MB-231 breast
NCI/ADR-RES ovarian = test system: NCI/ADR-RES ovarian
HS 578T breast = test system: HS 578T breast
SK-OV-3 ovarian = test system: SK-OV-3 ovarian

ClCc1cccc(Cn2cnc3c(Cl)nc(Cl)nc32)c1
3.12 µM: TGI (HCT-116 colon)
5.23 µM: TGI (NCI/ADR-RES ovarian)
3.44 µM: TGI (UACC-62 melanoma)
3.06 µM: TGI (UO-31 renal)
inactive: GI50 (A498 renal) 2.42 µM | GI50 (OVCAR-5 ovarian) 6.52 µM | GI50 (SR leukemia) 2.49 µM | GI50 (OVCAR-8 ovarian) 1.81 µM | GI50 (SNB-19 CNS) 1.96 µM | GI50 (COLO 205 colon) 2.22 µM | GI50 (U251 CNS) 1.7 µM | GI50 (SN12C renal) 2.14 µM | GI50 (SNB-75 CNS) 2.04 µM | GI50 (A549 NSCLC) 3.08 µM | GI50 (CCRF-CEM leukemia) 2.72 µM | GI50 (NCI-H460 lung) 2.36 µM | GI50 (M14 melanoma) 1.79 µM | GI50 (MALME-3M melanoma) 2.02 µM | GI50 (SF-268 CNS) 2.5 µM | GI50 (HCC-2998 colon) 1.61 µM | GI50 (PC-3 prostate) 2.38 µM | GI50 (SK-MEL-5 melanoma) 1.59 µM | GI50 (NCI-H522 lung) 2.72 µM | GI50 (HCT-116 colon) 1.64 µM | GI50 (CAKI-1 renal) 2.22 µM | GI50 (OVCAR-4 ovarian) 5.51 µM | GI50 (SK-MEL-2 melanoma) 1.98 µM | GI50 (ACHN renal) 1.91 µM | GI50 (MOLT-4 leukemia) 3.35 µM | GI50 (K-562 leukemia) 1.6 µM | GI50 (IGROV1 ovarian) 2.27 µM | GI50 (HOP-92 NSCLC) 1.84 µM | GI50 (SF-539 CNS) 2.2 µM | GI50 (NCI-H226 lung) 3.24 µM | GI50 (TK-10 renal) 1.74 µM | GI50 (HCT-15 colon) 2.41 µM | GI50 (SK-MEL-28 melanoma) 2.34 µM | GI50 (KM12 colon) 1.82 µM | GI50 (T-47D breast) 1.97 µM | GI50 (MDA-MB-435) 1.69 µM | GI50 (DU-145 prostate) 1.59 µM | GI50 (OVCAR-3 ovarian) 1.59 µM | GI50 (UACC-62 melanoma) 1.84 µM | GI50 (NCI-H23 lung) 2.14 µM | GI50 (HOP-62 NSCLC) 2.29 µM | GI50 (MCF7 breast) 2.04 µM | GI50 (RXF 393 renal) 0.76 µM | GI50 (EKVX NSCLC) 1.74 µM | GI50 (LOX IMVI melanoma) 1.69 µM | GI50 (HL-60(TB) leukemia) 0.642 µM | GI50 (RPMI-8226 leukemia) 3.29 µM | GI50 (SF-295 CNS) 4.37 µM | GI50 (HT29 colon) 2.39 µM | GI50 (UACC-257 melanoma) 1.86 µM | GI50 (SW-620 colon) 1.57 µM | GI50 (UO-31 renal) 1.58 µM | GI50 (786-0 renal) 12.4 µM | GI50 (BT-549 breast) 1.69 µM | GI50 (MDA-MB-231 breast) 1.95 µM | GI50 (NCI/ADR-RES ovarian) 2.42 µM
3.89 µM: TGI (SNB-75 CNS)
4.38 µM: TGI (HOP-62 NSCLC)
5.85 µM: TGI (CAKI-1 renal)
4.47 µM: TGI (MALME-3M melanoma)
3.51 µM: TGI (OVCAR-8 ovarian)
5.09 µM: TGI (NCI-H23 lung)
5.39 µM: TGI (COLO 205 colon)
3.45 µM: TGI (UACC-257 melanoma)
3.72 µM: TGI (ACHN renal)
3.79 µM: TGI (KM12 colon)
3.63 µM: TGI (HOP-92 NSCLC)
> 100 µM: TGI (SR leukemia) | TGI (CCRF-CEM leukemia) | TGI (MOLT-4 leukemia) | TGI (K-562 leukemia) | TGI (HL-60(TB) leukemia) | TGI (RPMI-8226 leukemia) | TGI (HT29 colon)
9.89 µM: TGI (A549 NSCLC)
3.95 µM: TGI (TK-10 renal)
4.17 µM: TGI (SNB-19 CNS)
3.09 µM: TGI (U251 CNS)
17.1 µM: TGI (SF-295 CNS)
5.02 µM: TGI (PC-3 prostate)
6.4 µM: TGI (MCF7 breast)
3.4 µM: TGI (LOX IMVI melanoma)
3.15 µM: TGI (HCC-2998 colon)
3.41 µM: TGI (M14 melanoma)
6.84 µM: TGI (HCT-15 colon)
20.2 µM: TGI (OVCAR-5 ovarian)
3.26 µM: TGI (MDA-MB-435)
3.76 µM: TGI (MDA-MB-231 breast)
5.32 µM: TGI (NCI-H522 lung)
26.8 µM: TGI (786-0 renal)
3.5 µM: TGI (SW-620 colon)
3.23 µM: TGI (BT-549 breast)
14.1 µM: TGI (SF-539 CNS)
6.53 µM: TGI (A498 renal)
2.1 µM: TGI (RXF 393 renal)
20.1 µM: TGI (OVCAR-4 ovarian)
5.18 µM: TGI (IGROV1 ovarian)
3.21 µM: TGI (OVCAR-3 ovarian)
4.5 µM: TGI (T-47D breast)
4.44 µM: TGI (SK-MEL-2 melanoma)
4.66 µM: TGI (SN12C renal)
6.25 µM: TGI (NCI-H460 lung)
5.38 µM: TGI (SK-MEL-28 melanoma)
6.64 µM: TGI (SF-268 CNS)
3.35 µM: TGI (EKVX NSCLC)
3.05 µM: TGI (SK-MEL-5 melanoma)
2.98 µM: TGI (DU-145 prostate)

N=C(N)c1ccc(-c2ccc(-c3ccc(Cl)c(Cl)c3)s2)cc1
4.23 µM: TGI (HL-60(TB) leukemia)
4.26 µM: TGI (CCRF-CEM leukemia)
inactive: GI50 (CCRF-CEM leukemia) 1.54 µM | GI50 (SK-MEL-2 melanoma) 2.51 µM | GI50 (DU-145 prostate) 1.75 µM | GI50 (HL-60(TB) leukemia) 1.7 µM | GI50 (RPMI-8226 leukemia) 1.89 µM | GI50 (BT-549 breast) 6.39 µM
4.37 µM: TGI (RPMI-8226 leukemia)
5.8 µM: TGI (SK-MEL-2 melanoma)
50 µM: TGI (BT-549 breast)
3.13 µM: TGI (DU-145 prostate)

O=Cc1ccc(OC[C@H]2COC(=O)N2)cc1
> 100 µM: TGI (OVCAR-5 ovarian) | TGI (SR leukemia) | TGI (OVCAR-8 ovarian) | TGI (SNB-19 CNS) | TGI (COLO 205 colon) | TGI (U251 CNS) | TGI (SN12C renal) | TGI (SNB-75 CNS) | TGI (A549 NSCLC) | TGI (CCRF-CEM leukemia) | TGI (NCI-H460 lung) | TGI (M14 melanoma) | TGI (HS 578T breast) | TGI (MALME-3M melanoma) | TGI (SF-268 CNS) | TGI (HCC-2998 colon) | TGI (PC-3 prostate) | TGI (SK-MEL-5 melanoma) | TGI (NCI-H522 lung) | TGI (HCT-116 colon) | TGI (CAKI-1 renal) | TGI (OVCAR-4 ovarian) | TGI (SK-MEL-2 melanoma) | TGI (ACHN renal) | TGI (MOLT-4 leukemia) | TGI (K-562 leukemia) | TGI (IGROV1 ovarian) | TGI (SF-539 CNS) | TGI (NCI-H226 lung) | TGI (TK-10 renal) | TGI (HCT-15 colon) | TGI (SK-MEL-28 melanoma) | TGI (KM12 colon) | TGI (T-47D breast) | TGI (MDA-MB-435) | TGI (DU-145 prostate) | TGI (OVCAR-3 ovarian) | TGI (UACC-62 melanoma) | TGI (NCI-H23 lung) | TGI (HOP-62 NSCLC) | TGI (MCF7 breast) | TGI (RXF 393 renal) | TGI (EKVX NSCLC) | TGI (SK-OV-3 ovarian) | TGI (LOX IMVI melanoma) | TGI (HL-60(TB) leukemia) | TGI (SF-295 CNS) | TGI (HT29 colon) | TGI (UACC-257 melanoma) | TGI (SW-620 colon) | TGI (UO-31 renal) | TGI (786-0 renal) | TGI (BT-549 breast) | TGI (MDA-MB-231 breast) | TGI (NCI/ADR-RES ovarian)
